Reference: PubChem BioAssay (NCI)
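Grown in 96-well plates, cells were treated for 48 hours with each compound at five concentrations. Insufficient inhibition: endpoint recorded as highest concentration tested. Here, GI50 denotes the concentration required for 50% inhibition of growth. TGI: concentration producing complete growth inhibition.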

Legend:
Assay in all cases: inhibition of tumour cell growth, NCI panel, 48 h
786-0 renal = tested on: 786-0 renal
A498 renal = tested on: A498 renal
A549 NSCLC = tested on: A549 NSCLC
ACHN renal = tested on: ACHN renal
BT-549 breast = tested on: BT-549 breast
CAKI-1 renal = tested on: CAKI-1 renal
CCRF-CEM leukemia = tested on: CCRF-CEM leukemia
COLO 205 colon = tested on: COLO 205 colon
DU-145 prostate = tested on: DU-145 prostate
EKVX NSCLC = tested on: EKVX NSCLC
HCC-2998 colon = tested on: HCC-2998 colon
HCT-116 colon = tested on: HCT-116 colon
HCT-15 colon = tested on: HCT-15 colon
HL-60(TB) leukemia = tested on: HL-60(TB) leukemia
HOP-62 NSCLC = tested on: HOP-62 NSCLC
HT29 colon = tested on: HT29 colon
IGROV1 ovarian = tested on: IGROV1 ovarian
K-562 leukemia = tested on: K-562 leukemia
KM12 colon = tested on: KM12 colon
LOX IMVI melanoma = tested on: LOX IMVI melanoma
M14 melanoma = tested on: M14 melanoma
MALME-3M melanoma = tested on: MALME-3M melanoma
MCF7 breast = tested on: MCF7 breast
MDA-MB-231 breast = tested on: MDA-MB-231 breast
MDA-MB-435 = tested on: MDA-MB-435
MOLT-4 leukemia = tested on: MOLT-4 leukemia
NCI-H226 lung = tested on: NCI-H226 lung
NCI-H23 lung = tested on: NCI-H23 lung
NCI-H460 lung = tested on: NCI-H460 lung
NCI-H522 lung = tested on: NCI-H522 lung
NCI/ADR-RES ovarian = tested on: NCI/ADR-RES ovarian
OVCAR-3 ovarian = tested on: OVCAR-3 ovarian
OVCAR-4 ovarian = tested on: OVCAR-4 ovarian
OVCAR-5 ovarian = tested on: OVCAR-5 ovarian
OVCAR-8 ovarian = tested on: OVCAR-8 ovarian
PC-3 prostate = tested on: PC-3 prostate
RPMI-8226 leukemia = tested on: RPMI-8226 leukemia
RXF 393 renal = tested on: RXF 393 renal
SF-268 CNS = tested on: SF-268 CNS
SF-295 CNS = tested on: SF-295 CNS
SF-539 CNS = tested on: SF-539 CNS
SK-MEL-2 melanoma = tested on: SK-MEL-2 melanoma
SK-MEL-28 melanoma = tested on: SK-MEL-28 melanoma
SK-MEL-5 melanoma = tested on: SK-MEL-5 melanoma
SK-OV-3 ovarian = tested on: SK-OV-3 ovarian
SN12C renal = tested on: SN12C renal
SNB-19 CNS = tested on: SNB-19 CNS
SNB-75 CNS = tested on: SNB-75 CNS
SR leukemia = tested on: SR leukemia
SW-620 colon = tested on: SW-620 colon
T-47D breast = tested on: T-47D breast
U251 CNS = tested on: U251 CNS
UACC-257 melanoma = tested on: UACC-257 melanoma
UACC-62 melanoma = tested on: UACC-62 melanoma
UO-31 renal = tested on: UO-31 renal

How did the GI50 (786-0 renal) turn out when `COc1ncc(-c2ccc3nccc(C#CCN4CCN(S(C)(=O)=O)CC4)c3c2)cc1NS(=O)(=O)c1ccc(F)cc1F` was run?
The GI50 was 52.2 nM.

What about the TGI (786-0 renal) of the same compound?
Its TGI is 3560 nM.

What about the GI50 (A498 renal) of the same compound?
The GI50 was 48 nM.

What about the TGI (A498 renal) of the same compound?
Its TGI is 309 nM.

And the GI50 (A549 NSCLC)?
The GI50 was 83 nM.

And the TGI (A549 NSCLC)?
The TGI was 7680 nM.

What about the GI50 (ACHN renal) of the same compound?
The GI50 was 50 nM.

What about the TGI (ACHN renal) of the same compound?
The TGI was 3390 nM.

And the GI50 (BT-549 breast)?
Its GI50 is 39 nM.

What about the TGI (BT-549 breast) of the same compound?
The TGI was 874 nM.

And the GI50 (CAKI-1 renal)?
The GI50 was 173 nM.

What about the TGI (CAKI-1 renal) of the same compound?
Its TGI is 13400 nM.

And the GI50 (CCRF-CEM leukemia)?
The GI50 was 101 nM.

And the TGI (CCRF-CEM leukemia)?
The TGI was 2490 nM.

What about the GI50 (COLO 205 colon) of the same compound?
The GI50 was 41.8 nM.

What about the TGI (COLO 205 colon) of the same compound?
The TGI was 1180 nM.

What about the GI50 (DU-145 prostate) of the same compound?
Its GI50 is 108 nM.

And the TGI (DU-145 prostate)?
The TGI was 12600 nM.

What about the GI50 (EKVX NSCLC) of the same compound?
Its GI50 is 146 nM.

And the TGI (EKVX NSCLC)?
Its TGI is 12400 nM.

What about the GI50 (HCC-2998 colon) of the same compound?
The GI50 was 63.5 nM.

And the TGI (HCC-2998 colon)?
The TGI was 1250 nM.

What about the GI50 (HCT-116 colon) of the same compound?
Its GI50 is 178 nM.

And the TGI (HCT-116 colon)?
Its TGI is 1870 nM.

And the GI50 (HCT-15 colon)?
Its GI50 is 61.4 nM.

And the TGI (HCT-15 colon)?
Its TGI is 1620 nM.

What about the GI50 (HL-60(TB) leukemia) of the same compound?
Its GI50 is 25.7 nM.

What about the TGI (HL-60(TB) leukemia) of the same compound?
Its TGI is 1810 nM.

What about the GI50 (HOP-62 NSCLC) of the same compound?
Its GI50 is < 15.9 nM.

And the TGI (HOP-62 NSCLC)?
Its TGI is 5560 nM.

And the GI50 (HT29 colon)?
Its GI50 is 23.7 nM.

What about the TGI (HT29 colon) of the same compound?
Its TGI is 2100 nM.

And the GI50 (IGROV1 ovarian)?
The GI50 was < 10 nM.

What about the TGI (IGROV1 ovarian) of the same compound?
The TGI was 33.3 nM.

What about the GI50 (K-562 leukemia) of the same compound?
Its GI50 is 665 nM.

What about the TGI (K-562 leukemia) of the same compound?
The TGI was > 41300 nM.

What about the GI50 (KM12 colon) of the same compound?
Its GI50 is 293 nM.

And the TGI (KM12 colon)?
Its TGI is 1550 nM.

And the GI50 (LOX IMVI melanoma)?
Its GI50 is 95.6 nM.

What about the TGI (LOX IMVI melanoma) of the same compound?
Its TGI is 1410 nM.

And the GI50 (M14 melanoma)?
The GI50 was 85.5 nM.

What about the TGI (M14 melanoma) of the same compound?
Its TGI is 2380 nM.

What about the GI50 (MALME-3M melanoma) of the same compound?
Its GI50 is 15 nM.

And the TGI (MALME-3M melanoma)?
The TGI was 214 nM.

What about the GI50 (MCF7 breast) of the same compound?
The GI50 was < 10 nM.

And the TGI (MCF7 breast)?
Its TGI is 1790 nM.

What about the GI50 (MDA-MB-231 breast) of the same compound?
Its GI50 is 367 nM.

What about the TGI (MDA-MB-231 breast) of the same compound?
The TGI was 17200 nM.

What about the GI50 (MDA-MB-435) of the same compound?
Its GI50 is 91.5 nM.

And the TGI (MDA-MB-435)?
Its TGI is 1260 nM.

And the GI50 (MOLT-4 leukemia)?
The GI50 was 39.1 nM.

What about the TGI (MOLT-4 leukemia) of the same compound?
The TGI was 2290 nM.

And the GI50 (NCI-H226 lung)?
Its GI50 is 298 nM.

What about the TGI (NCI-H226 lung) of the same compound?
The TGI was 2270 nM.

What about the GI50 (NCI-H23 lung) of the same compound?
The GI50 was 287 nM.

What about the TGI (NCI-H23 lung) of the same compound?
Its TGI is 5900 nM.

What about the GI50 (NCI-H460 lung) of the same compound?
Its GI50 is 49 nM.

What about the TGI (NCI-H460 lung) of the same compound?
Its TGI is 4710 nM.

And the GI50 (NCI-H522 lung)?
Its GI50 is 154 nM.

What about the TGI (NCI-H522 lung) of the same compound?
The TGI was 1770 nM.

What about the GI50 (NCI/ADR-RES ovarian) of the same compound?
Its GI50 is 465 nM.

What about the TGI (NCI/ADR-RES ovarian) of the same compound?
The TGI was 12400 nM.

What about the GI50 (OVCAR-3 ovarian) of the same compound?
Its GI50 is 46.6 nM.

And the TGI (OVCAR-3 ovarian)?
Its TGI is 982 nM.

And the GI50 (OVCAR-4 ovarian)?
Its GI50 is 264 nM.

And the TGI (OVCAR-4 ovarian)?
Its TGI is 12000 nM.

What about the GI50 (OVCAR-5 ovarian) of the same compound?
The GI50 was 20.7 nM.

And the TGI (OVCAR-5 ovarian)?
Its TGI is 5720 nM.

What about the GI50 (OVCAR-8 ovarian) of the same compound?
The GI50 was 256 nM.

And the TGI (OVCAR-8 ovarian)?
The TGI was 11700 nM.

And the GI50 (PC-3 prostate)?
The GI50 was 58 nM.

And the TGI (PC-3 prostate)?
Its TGI is 10900 nM.

And the GI50 (RPMI-8226 leukemia)?
Its GI50 is 256 nM.

And the TGI (RPMI-8226 leukemia)?
The TGI was 1830 nM.

And the GI50 (RXF 393 renal)?
Its GI50 is 43.8 nM.

And the TGI (RXF 393 renal)?
The TGI was 354 nM.

And the GI50 (SF-268 CNS)?
The GI50 was 98.5 nM.

And the TGI (SF-268 CNS)?
The TGI was 3930 nM.

And the GI50 (SF-295 CNS)?
The GI50 was 68.4 nM.

What about the TGI (SF-295 CNS) of the same compound?
The TGI was 1170 nM.

And the GI50 (SF-539 CNS)?
The GI50 was 39.8 nM.

What about the TGI (SF-539 CNS) of the same compound?
Its TGI is 272 nM.

And the GI50 (SK-MEL-2 melanoma)?
Its GI50 is 116 nM.

What about the TGI (SK-MEL-2 melanoma) of the same compound?
Its TGI is 1130 nM.

What about the GI50 (SK-MEL-28 melanoma) of the same compound?
The GI50 was 25.6 nM.

And the TGI (SK-MEL-28 melanoma)?
Its TGI is 843 nM.

What about the GI50 (SK-MEL-5 melanoma) of the same compound?
The GI50 was 192 nM.

What about the TGI (SK-MEL-5 melanoma) of the same compound?
The TGI was 723 nM.

And the GI50 (SK-OV-3 ovarian)?
The GI50 was 17.5 nM.

And the TGI (SK-OV-3 ovarian)?
Its TGI is 168 nM.

And the GI50 (SN12C renal)?
The GI50 was 124 nM.

What about the TGI (SN12C renal) of the same compound?
The TGI was 11700 nM.

What about the GI50 (SNB-19 CNS) of the same compound?
Its GI50 is 299 nM.

And the TGI (SNB-19 CNS)?
Its TGI is 2110 nM.

What about the GI50 (SNB-75 CNS) of the same compound?
Its GI50 is 10.6 nM.

And the TGI (SNB-75 CNS)?
Its TGI is 152 nM.

And the GI50 (SR leukemia)?
The GI50 was 222 nM.

What about the TGI (SR leukemia) of the same compound?
Its TGI is 27000 nM.

And the GI50 (SW-620 colon)?
The GI50 was 205 nM.

What about the TGI (SW-620 colon) of the same compound?
The TGI was 2230 nM.

What about the GI50 (T-47D breast) of the same compound?
Its GI50 is < 10 nM.

And the TGI (T-47D breast)?
The TGI was 17.8 nM.

What about the GI50 (U251 CNS) of the same compound?
The GI50 was 211 nM.

And the TGI (U251 CNS)?
Its TGI is 1750 nM.

And the GI50 (UACC-257 melanoma)?
Its GI50 is 38.6 nM.

What about the TGI (UACC-257 melanoma) of the same compound?
The TGI was 517 nM.

And the GI50 (UACC-62 melanoma)?
The GI50 was 34.2 nM.

What about the TGI (UACC-62 melanoma) of the same compound?
The TGI was 307 nM.

And the GI50 (UO-31 renal)?
The GI50 was 27.4 nM.

And the TGI (UO-31 renal)?
The TGI was 3730 nM.
